Test results as given in US20220348883A1, “HIGH-DENSITY CELL CULTURE METHOD” (AJINOMOTO CO., INC., priority 2020, published 2022).

Test system: iPS cell 1210B2 strain
Conditions: StemFit AK03N+10 mg/L choline chloride vs StemFit AK03N; suspension culture seeded at 6×10^5 cells/mL; viable cells measured on 8th day of culture; n=1
Procedure: In the following Example, the proliferation effect of induced pluripotent stem cells (iPS cells) by choline were evaluated. As the iPS cell, 1210B2 strain purchased from iPS Academia Japan was used. In addition, as a medium for iPS cells, a commercially available StemFit AKO3N (Ajinomoto Co., Inc.) was used.
Using a 30 mL single use bioreactor for iPS cells (ABLE: BWV-S03A), iPS cell 1210B2 strain was seeded in StemFit AK03N+10 μM Y-27632 (Wako: 034-24024) at a cell density of 6×10^5 cells/mL and the cells were cultured with stirring in a CO2 incubator under the conditions of 37° C., CO2 concentration=5%, stirring speed=120 rpm. On the second day of seeding, 70% of the medium was replaced with StemFit AK03N. […] The cells were transferred to a micro bioreactor ambr15 (sartorius:001-0881), and stirring culture was continued under the conditions of 37° C., pH=7.2, dissolved oxygen concentration=20%, stirring speed=300 rpm. […] On the 8th day of culture, the number of viable cells was measured using Vi-CELL™ XR (Beckman Coulter), a live/dead cell autoanalyzer.

SMILES: C[N+](C)(C)CCO.[Cl-] [choline, choline chloride]
- influence of choline on the proliferation of iPS cells (number of viable cells): cell proliferation promoting effect
